The values below come from ChEMBL document CHEMBL1667756, “Design, synthesis and antibacterial activity of 3-methylenepyrrolidine formyl hydroxyamino derivatives as novel peptide deformylase inhibitors” (2011).

Values after ≈ are worked out from the molar mass of the structure shown.

What all share (assay type): functional
Experiment [1] deals with Staphylococcus aureus. Put plainly: Antibacterial activity against Staphylococcus aureus OXFORD by broth micro dilution technique.
The subject of a further experiment is Enterococcus faecalis. The experiment is described as follows: Antibacterial activity against Enterococcus faecalis by broth micro dilution technique.
Experiment [2] concerns Staphylococcus aureus. The experiment is described as follows: Antibacterial activity against methicillin-resistant Staphylococcus aureus by agar dilution method. (In general: In agar dilution the substance is mixed into plates at graded concentrations.)
Experiment [3] deals with Staphylococcus epidermidis. Put plainly: Antibacterial activity against methicillin-susceptible Staphylococcus epidermidis by agar dilution method.
In experiment [4] the test system is Staphylococcus aureus. Put plainly: Antibacterial activity against Staphylococcus aureus WCUH29 by broth micro dilution technique.
Experiment [5] has as its system Streptococcus pneumoniae. Put plainly: Antibacterial activity against Streptococcus pneumoniae N1387 by broth micro dilution technique.
Experiment [6] concerns Streptococcus pyogenes. Put plainly: Antibacterial activity against Streptococcus pyogenes 1307006P by broth micro dilution technique.
The test system of experiment [7] is Streptococcus pneumoniae. Put plainly: Antibacterial activity against Streptococcus pneumoniae 1629 by broth micro dilution technique.
Experiment [8] concerns Haemophilus influenzae. Put plainly: Antibacterial activity against AcrA deficient Haemophilus influenzae H128 by broth micro dilution technique.
Experiment [9] deals with Staphylococcus aureus. The experiment is described as follows: Antibacterial activity against methicillin-resistant Staphylococcus aureus ATCC 43300 by broth micro dilution technique.
Another experiment has as its system Escherichia coli. The experiment is described as follows: Antibacterial activity against Escherichia coli by broth micro dilution technique.
Experiment [10] has as its system Haemophilus influenzae. Put plainly: Antibacterial activity against Haemophilus influenzae by agar dilution method.
Experiment [11] relates to Haemophilus influenzae. The experiment is described as follows: Antibacterial activity against Haemophilus influenzae Q1 by broth micro dilution technique.
Another experiment deals with Enterococcus faecium. Put plainly: Antibacterial activity against Enterococcus faecium X7501 by broth micro dilution technique.
Experiment [12] deals with Streptococcus pneumoniae. Put plainly: Antibacterial activity against Streptococcus pneumoniae ERY2 by broth micro dilution technique.
Another experiment deals with Moraxella catarrhalis. The experiment is described as follows: Antibacterial activity against Moraxella catarrhalis 1502 by broth micro dilution technique.
The subject of experiment [13] is Staphylococcus aureus. Put plainly: Antibacterial activity against Staphylococcus aureus ATCC 25923 by broth micro dilution technique.
In experiment [14] the test system is Streptococcus pyogenes. The experiment is described as follows: Antibacterial activity against Streptococcus pyogenes 1308007P by broth micro dilution technique.
The test system of experiment [15] is Staphylococcus aureus. The experiment is described as follows: Antibacterial activity against methicillin-susceptible Staphylococcus aureus by agar dilution method.
Experiment [16] concerns Streptococcus pneumoniae. The experiment is described as follows: Antibacterial activity against penicillin-susceptible Streptococcus pneumoniae by agar dilution method.
For experiment [17], the system named is Haemophilus influenzae. The experiment is described as follows: Antibacterial activity against Haemophilus influenzae H128 by broth micro dilution technique.
The subject of experiment [18] is Staphylococcus epidermidis. Put plainly: Antibacterial activity against methicillin-resistant Staphylococcus epidermidis ATCC 12228 by broth micro dilution technique.
For experiment [19], the system named is Staphylococcus aureus. The experiment is described as follows: Antibacterial activity against methicillin-susceptible Staphylococcus aureus ATCC 29213 by broth micro dilution technique.
In experiment [20] the test system is Streptococcus pneumoniae. The experiment is described as follows: Antibacterial activity against penicillin-resistant Streptococcus pneumoniae by agar dilution method.
Experiment [21] has as its system Staphylococcus epidermidis. Put plainly: Antibacterial activity against methicillin-resistant Staphylococcus epidermidis by agar dilution method.

On to `C=C1C[C@@H](C(=O)Nc2ncc(C)s2)N(C(=O)[C@H](CCCC)CN(O)C=O)C1`, for which the MIC amounted to 0.5 µg/mL (≈ 1.27 µM) in the experiment on Staphylococcus aureus [1]; 4 µg/mL (≈ 10.1 µM) against Enterococcus faecalis; 0.5 µg/mL (≈ 1.27 µM) with Staphylococcus aureus [2]; 1 µg/mL (≈ 2.53 µM) in experiment [3]; 0.125 µg/mL (≈ 0.317 µM) against Staphylococcus aureus [4]; 1 µg/mL (≈ 2.53 µM) in the experiment with Streptococcus pneumoniae [5]. In addition, the MIC in the experiment with Streptococcus pyogenes [6] was 2 µg/mL (≈ 5.07 µM); in the experiment with Streptococcus pneumoniae [7], 2 µg/mL (≈ 5.07 µM); against Haemophilus influenzae [8], at most 0.06 µg/mL; with Staphylococcus aureus [9], 0.125 µg/mL (≈ 0.317 µM); against Escherichia coli, 64 µg/mL (≈ 162 µM); against Haemophilus influenzae [10] it was 4 µg/mL (≈ 10.1 µM). For the same molecule, the MIC in the experiment on Haemophilus influenzae [11] was 4 µg/mL (≈ 10.1 µM); against Enterococcus faecium it was 2 µg/mL (≈ 5.07 µM); in the experiment with Streptococcus pneumoniae [12], 2 µg/mL (≈ 5.07 µM); in the experiment with Moraxella catarrhalis, at most 0.06 µg/mL; against Staphylococcus aureus [13], 0.5 µg/mL (≈ 1.27 µM); in the experiment on Streptococcus pyogenes [14], 2 µg/mL (≈ 5.07 µM). The MIC in the experiment with Staphylococcus aureus [15] came out at 1 µg/mL (≈ 2.53 µM); in the experiment on Streptococcus pneumoniae [16], 0.25 µg/mL (≈ 0.634 µM); against Haemophilus influenzae [17], 4 µg/mL (≈ 10.1 µM); in experiment [18], 0.125 µg/mL (≈ 0.317 µM); against Staphylococcus aureus [19], 1 µg/mL (≈ 2.53 µM); with Streptococcus pneumoniae [20] it was 0.5 µg/mL (≈ 1.27 µM). Further, in experiment [21], the MIC is 2 µg/mL (≈ 5.07 µM).

For `CC1(C)S[C@@H]2[C@H](NC(=O)[C@H](N)c3ccc(O)cc3)C(=O)N2[C@H]1C(=O)O` [AMOXICILLIN], the MIC against Staphylococcus aureus [1] was 0.125 µg/mL (≈ 0.342 µM); against Enterococcus faecalis, 0.5 µg/mL (≈ 1.37 µM); with Staphylococcus aureus [4], 64 µg/mL (≈ 175 µM); in the experiment with Streptococcus pneumoniae [5], 2 µg/mL (≈ 5.47 µM); with Streptococcus pyogenes [6], at most 0.06 µg/mL; in the experiment with Streptococcus pneumoniae [7] it was at most 0.06 µg/mL. Besides, the MIC against Haemophilus influenzae [8] is 64 µg/mL (≈ 175 µM); in the experiment with Escherichia coli it was 1 µg/mL (≈ 2.74 µM); with Haemophilus influenzae [11], 0.25 µg/mL (≈ 0.684 µM); against Enterococcus faecium, 16 µg/mL (≈ 43.8 µM); in the experiment with Streptococcus pneumoniae [12], at most 0.06 µg/mL; in the experiment on Moraxella catarrhalis, at most 0.06 µg/mL. In addition, the results for the MIC in the experiment on Streptococcus pyogenes [14] and against Haemophilus influenzae [17] were at most 0.06 µg/mL and 32 µg/mL (≈ 87.6 µM), respectively.

`C=C1C[C@@H](C(=O)Nc2ccc(F)cc2)N(C(=O)[C@H](CCCC)CN(O)C=O)C1`: the MIC in the experiment with Staphylococcus aureus [9] was found to be 0.5 µg/mL (≈ 1.28 µM); against Staphylococcus aureus [13], 1 µg/mL (≈ 2.55 µM); in [18], 1 µg/mL (≈ 2.55 µM); in the experiment with Staphylococcus aureus [19], 4 µg/mL (≈ 10.2 µM).

Turning to `C=C1C[C@@H](C(=O)Nc2ccccc2)N(C(=O)[C@H](CCCC)CN(O)C=O)C1`, the MIC against Staphylococcus aureus [9] worked out at 1 µg/mL (≈ 2.68 µM); with Staphylococcus aureus [13], 2 µg/mL (≈ 5.36 µM); in experiment [18], 2 µg/mL (≈ 5.36 µM); in the experiment with Staphylococcus aureus [19], 8 µg/mL (≈ 21.4 µM).

Take `C=C1C[C@@H](C(=O)Nc2ccc(F)cn2)N(C(=O)[C@H](CCCC)CN(O)C=O)C1`: the MIC stood at 4 µg/mL (≈ 10.2 µM) against Staphylococcus aureus [1]; 32 µg/mL (≈ 81.5 µM) against Enterococcus faecalis; 0.5 µg/mL (≈ 1.27 µM) in the experiment on Staphylococcus aureus [4]; 4 µg/mL (≈ 10.2 µM) with Streptococcus pneumoniae [5]; 4 µg/mL (≈ 10.2 µM) in the experiment with Streptococcus pyogenes [6]; 16 µg/mL (≈ 40.8 µM) in the experiment with Streptococcus pneumoniae [7]. Besides, the MIC is 0.5 µg/mL (≈ 1.27 µM) with Haemophilus influenzae [8]; 0.125 µg/mL (≈ 0.319 µM) in the experiment on Staphylococcus aureus [9]; above 64 µg/mL in the experiment on Escherichia coli; 16 µg/mL (≈ 40.8 µM) against Haemophilus influenzae [11]; 4 µg/mL (≈ 10.2 µM) against Enterococcus faecium; 8 µg/mL (≈ 20.4 µM) against Streptococcus pneumoniae [12]. For the same molecule, the MIC with Moraxella catarrhalis worked out at 0.25 µg/mL (≈ 0.637 µM); in the experiment on Staphylococcus aureus [13], 1 µg/mL (≈ 2.55 µM); with Streptococcus pyogenes [14], 4 µg/mL (≈ 10.2 µM); against Haemophilus influenzae [17] it was 16 µg/mL (≈ 40.8 µM); in [18], 0.5 µg/mL (≈ 1.27 µM); in the experiment with Staphylococcus aureus [19], 2 µg/mL (≈ 5.1 µM).

With `C=C1C[C@@H](C(=O)Nc2ncc(C)s2)N(C(=O)[C@H](CC2CCCC2)CN(O)C=O)C1`, the MIC against Staphylococcus aureus [2] stood at 0.0625 µg/mL (≈ 0.149 µM); in experiment [3], 1 µg/mL (≈ 2.38 µM); against Staphylococcus aureus [9], 0.0625 µg/mL (≈ 0.149 µM); in the experiment with Haemophilus influenzae [10], 1 µg/mL (≈ 2.38 µM); against Staphylococcus aureus [13], 0.0625 µg/mL (≈ 0.149 µM); with Staphylococcus aureus [15], 1 µg/mL (≈ 2.38 µM). Moreover, the MIC against Streptococcus pneumoniae [16] amounted to 0.25 µg/mL (≈ 0.594 µM); in experiment [18], 0.125 µg/mL (≈ 0.297 µM); against Staphylococcus aureus [19] it was 0.5 µg/mL (≈ 1.19 µM); against Streptococcus pneumoniae [20], 0.25 µg/mL (≈ 0.594 µM); in [21] it was 0.5 µg/mL (≈ 1.19 µM).

As for `CC(=O)NC[C@H]1CN(c2ccc(N3CCOCC3)c(F)c2)C(=O)O1` [LINEZOLID], the MIC in the experiment with Staphylococcus aureus [2] was determined as 0.5 µg/mL (≈ 1.48 µM); in experiment [3] it was 1 µg/mL (≈ 2.96 µM); against Staphylococcus aureus [15] it was 1 µg/mL (≈ 2.96 µM); in experiment [18], 0.5 µg/mL (≈ 1.48 µM); in [21] it was 1 µg/mL (≈ 2.96 µM).

Regarding `C=C1C[C@@H](C(=O)N2CCOCC2)N(C(=O)[C@H](CCCC)CN(O)C=O)C1`, the MIC with Staphylococcus aureus [9] is 8 µg/mL (≈ 21.8 µM); against Staphylococcus aureus [13] it was 8 µg/mL (≈ 21.8 µM); in experiment [18], 16 µg/mL (≈ 43.5 µM); in the experiment on Staphylococcus aureus [19] it was above 64 µg/mL.

For the molecule `C=C1C[C@@H](C(=O)NC2CC2)N(C(=O)[C@H](CC2CCCC2)CN(O)C=O)C1`, the MIC amounted to 0.5 µg/mL (≈ 1.38 µM) with Staphylococcus aureus [2]; 1 µg/mL (≈ 2.75 µM) in experiment [3]; 1 µg/mL (≈ 2.75 µM) with Staphylococcus aureus [9]; 4 µg/mL (≈ 11 µM) in the experiment with Haemophilus influenzae [10]; 4 µg/mL (≈ 11 µM) in the experiment on Staphylococcus aureus [13]; 2 µg/mL (≈ 5.5 µM) in the experiment with Staphylococcus aureus [15]. For the same molecule, the MIC with Streptococcus pneumoniae [16] came to 1 µg/mL (≈ 2.75 µM); in [18], 4 µg/mL (≈ 11 µM); in the experiment on Staphylococcus aureus [19], 8 µg/mL (≈ 22 µM); against Streptococcus pneumoniae [20] it was 1 µg/mL (≈ 2.75 µM); in experiment [21], 4 µg/mL (≈ 11 µM).

With `C=C1C[C@@H](C(=O)Nc2ccc(F)cc2)N(C(=O)[C@H](CC2CCCC2)CN(O)C=O)C1`, the MIC in the experiment on Staphylococcus aureus [2] is 0.25 µg/mL (≈ 0.599 µM); in [3], 0.5 µg/mL (≈ 1.2 µM); with Staphylococcus aureus [9], 0.5 µg/mL (≈ 1.2 µM); against Haemophilus influenzae [10], 4 µg/mL (≈ 9.58 µM); against Staphylococcus aureus [13], 1 µg/mL (≈ 2.4 µM); against Staphylococcus aureus [15], 1 µg/mL (≈ 2.4 µM). Besides, the MIC was determined as 0.25 µg/mL (≈ 0.599 µM) against Streptococcus pneumoniae [16]; 1 µg/mL (≈ 2.4 µM) in experiment [18]; 2 µg/mL (≈ 4.79 µM) with Staphylococcus aureus [19]; 0.25 µg/mL (≈ 0.599 µM) against Streptococcus pneumoniae [20]; 0.25 µg/mL (≈ 0.599 µM) in experiment [21].
